Measured values from patent US20080293048A1, “METHODS AND KITS BASED ON UGT1A7 PROMOTER POLYMORPHISM” (priority 2004, published 2008).

How the values were obtained:
UGT1A7 = target: T1, UGT1A7 (Homo sapiens, UniProt Q9HAW7); details: stated as known; cited from earlier work
T1 construct: expressed in transfected cells; host or cells: HEK293
T1 sequence (Q9HAW7 26-530): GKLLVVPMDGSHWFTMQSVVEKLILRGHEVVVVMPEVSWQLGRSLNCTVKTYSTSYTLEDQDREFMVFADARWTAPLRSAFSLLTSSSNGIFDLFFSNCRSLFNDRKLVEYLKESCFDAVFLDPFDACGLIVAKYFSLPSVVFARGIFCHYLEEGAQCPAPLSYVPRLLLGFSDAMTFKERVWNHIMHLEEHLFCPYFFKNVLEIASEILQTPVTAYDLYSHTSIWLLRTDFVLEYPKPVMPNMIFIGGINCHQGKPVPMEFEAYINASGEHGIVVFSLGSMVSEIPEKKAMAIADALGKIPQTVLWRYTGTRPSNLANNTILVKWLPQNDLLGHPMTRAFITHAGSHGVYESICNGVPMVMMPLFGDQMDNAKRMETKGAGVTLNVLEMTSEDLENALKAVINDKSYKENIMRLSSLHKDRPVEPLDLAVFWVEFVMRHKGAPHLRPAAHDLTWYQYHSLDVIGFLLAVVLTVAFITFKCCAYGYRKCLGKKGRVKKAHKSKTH

[1] = background statement; cited from earlier work
[2] = tested on: patients with metastatic colorectal cancer; details: human, in vivo
Experimental: The aim of this study was to assess adverse events, dose reductions and clinical outcome. In both treatment arms 80 mg/m^2 of CPT-11 were administered intravenously over 30 minutes on day 1, 8, 15, 22, 29 and 36 and the cycle repeated after day 50. In arm A of the FIRE study FA (500 mg/m^2, 120 min. infusion) and 5-FU (2000 mg/m^2, 24 h infusion) were co-administered on days 1, 8, 15, 22, 29, 36, and in arm B oxaliplatin (85 mg/m^2, 120 min infusion) were co-administered on day 1, 15 and 29. At the beginning of each treatment cycle adverse events and clinical symptoms were documented. Patients with known Gilbert's disease were excluded from this study. The following adverse events were analyzed: diarrhea within 24 h and later than 24 after administration of CPT-11, loss of body weight more than 5%, anemia, thrombocytopenia, and leukopenia. The intensity of adverse events was classified according to the WHO-Adverse Reaction Terminology with scores from “0”—“no adverse events” to 4—“life-threatening adverse events”. If the CPT-11 dose had to be reduced to less than 80%, dose reduction was documented at each cycle. Genomic DNA from full blood of all patients was isolated as described before and genotyped after written informed consent was obtained. The study was approved by the local ethics committees.
All genotyping studies were performed in a blinded fashion without prior knowledge of the clinical data of the analyzed patient. Approximately 10 ng of genomic DNA were used as a template in Taqman 5′-nuclease assays. Primers and probes specific for each SNP were designed with Primer Express Software (Applied Biosystems) and labelled with either 6-FAM or VIC as reporter dyes and MGB-NFQ (Applied Biosystems) as a quencher as described in Lankisch et al., Mol. Pharmacol, 2005, 67(5); 1732-1739. The Taqman assays were performed using 600 nM primer concentrations and 200 nM probe concentrations (Applied Biosystems) and qPCR Mastermix Plus (Eurogentec, Seraing, Belgium). The run consisted of a hot start at 95° C. for 10 minutes and 35 cycles of 94° C. for 15 sec. and 61° C. for 1 min. All assays were performed in 25 μl reactions in 96-well trays using an ABI 7000 instrument (Applied Biosystems). UGT1A1*28 was determined by Oncoscreen, Jena, Germany.
Patients were classified according to the number of SNPs determined at the UGT1A1*28, UGT1A7 −57 T/G and UGT1A7 N129K/R131K gene loci. In the absence of allelic variants patients were classified as “low risk”, whereas high risk patients were defined if at least one allele of the allelic variant of each analyzed gene locus was present. If only one or two allelic variants were detected at the UGT1A1 or UGT1A7 gene locus, patients were classified as “intermediate risk”. […] Frequency and intensity of the adverse events were compared between the risk groups defined above by Cochran-Mantel-Haenszel statistics using modified ridit scores. The risk groups were also compared by multivariant analysis (non-parametric Weil-Lachin procedure) for differences in intensity of 5 adverse events simultaneously. […] This test leads to values between 0 and 1 with 0.5 characterizing equal chances, which would indicate no difference in the comparison of these patients. The analysis of incidence and intensity of adverse events was based on the documented 297 treatment cycles involving all 105 patients. The Chi-Square test was used for statistical analysis of CPT-11 dose reductions. P-values were not adjusted for multiple testing. All statistical analyses were calculated by an independent statistician who was not involved in patient treatment or genotyping (Estimate GmbH, Augsburg, Germany).

Leukopenia WHO Grade 1, % [2]	Leukopenia WHO Grade 1, n treatment cycles [2]	Thrombocytopenia WHO Grade 2, % [2]	Thrombocytopenia WHO Grade 2, n treatment cycles [2]	Thrombocytopenia WHO Grade 3, % [2]	Thrombocytopenia WHO Grade 3, n treatment cycles [2]	diarrhea <24 h WHO Grade 3, % of treatment cycles [2]	diarrhea <24 h WHO Grade 3, N treatment cycles [2]	leukopenia WHO Grade 4, % of treatment cycles [2]	leukopenia WHO Grade 4, N treatment cycles [2]	thrombocytopenia WHO Grade 2, % of treatment cycles [2]	thrombocytopenia WHO Grade 2, N treatment cycles [2]	thrombocytopenia WHO Grade 3, % of treatment cycles [2]	thrombocytopenia WHO Grade 3, N treatment cycles [2]	Leukopenia WHO Grade 4, % ([2]; 50 days (one treatment cycle))	Leukopenia WHO Grade 4, n treatment cycles ([2]; 50 days (one treatment cycle))	Compound	specific activity of UGT1A7 with SN-38 compared with UGT1A1 (UGT1A7)	activity higher than irinotecan [1]	overall incidence of adverse events, Mann Whitney test ([2]; 50 days)
																CCc1c2c(nc3ccc(O)cc13)-c1cc3c(c(=O)n1C2)COC(=O)[C@]3(O)CC [SN-38, 7-ethyl-10-hydroxycamptothecin]	five-hold higher	100-1000 fold	
21%	10	3%	5	1%	1	1 (1%)	1 (1%)	1%	2	3%	5	1 (1%)	1 (1%)	1%	2	CCc1c2c(nc3ccc(OC(=O)N4CCC(N5CCCCC5)CC4)cc13)-c1cc3c(c(=O)n1C2)COC(=O)[C@]3(O)CC [irinotecan]			0.5511
